From paper PMC2799458, “Diastereomers of the Brominated Flame Retardant 1,2-Dibromo-4-(1,2 dibromoethyl)cyclohexane Induce Androgen Receptor Activation in the HepG2 Hepatocellular Carcinoma Cell Line and the LNCaP Prostate Cancer Cell Line” (Environmental Health Perspectives, 2009)
pEC50, pIC50: −log10 of the molar value. Like-named read-outs stand apart in the source and are kept apart here. Marks after values point to notes of the source that are not given here.

How the values were obtained:
AR-LBD = biological target: T1, AR-LBD (Rattus norvegicus, UniProt P15207); experiment: PolarScreen AR competition assay (polarization fluorometry); assay type: binding
T1 construct: purchased PanVera, Madison, WI, USA
T1 sequence (P15207 651-882 limits assumed): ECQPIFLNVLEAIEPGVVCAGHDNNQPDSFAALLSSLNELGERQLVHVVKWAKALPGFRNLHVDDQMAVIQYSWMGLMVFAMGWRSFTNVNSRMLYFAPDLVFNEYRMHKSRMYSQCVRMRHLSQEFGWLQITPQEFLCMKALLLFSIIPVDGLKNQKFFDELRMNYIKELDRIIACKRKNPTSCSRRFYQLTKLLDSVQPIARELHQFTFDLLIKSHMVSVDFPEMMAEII
Protocol: The final concentration of AR LBD was 50 nM. […] All analyses were performed in triplicate.

hAR = biological target: T2, hAR (Homo sapiens, UniProt P10275); experiment: AR activation, slp-ARE-Luc reporter in HepG2 cells transfected with pCMVhAR; assay type: cell-based
T2 construct: expressed in transfected cells; host or cells: HepG2
T2 sequence (P10275 1-920): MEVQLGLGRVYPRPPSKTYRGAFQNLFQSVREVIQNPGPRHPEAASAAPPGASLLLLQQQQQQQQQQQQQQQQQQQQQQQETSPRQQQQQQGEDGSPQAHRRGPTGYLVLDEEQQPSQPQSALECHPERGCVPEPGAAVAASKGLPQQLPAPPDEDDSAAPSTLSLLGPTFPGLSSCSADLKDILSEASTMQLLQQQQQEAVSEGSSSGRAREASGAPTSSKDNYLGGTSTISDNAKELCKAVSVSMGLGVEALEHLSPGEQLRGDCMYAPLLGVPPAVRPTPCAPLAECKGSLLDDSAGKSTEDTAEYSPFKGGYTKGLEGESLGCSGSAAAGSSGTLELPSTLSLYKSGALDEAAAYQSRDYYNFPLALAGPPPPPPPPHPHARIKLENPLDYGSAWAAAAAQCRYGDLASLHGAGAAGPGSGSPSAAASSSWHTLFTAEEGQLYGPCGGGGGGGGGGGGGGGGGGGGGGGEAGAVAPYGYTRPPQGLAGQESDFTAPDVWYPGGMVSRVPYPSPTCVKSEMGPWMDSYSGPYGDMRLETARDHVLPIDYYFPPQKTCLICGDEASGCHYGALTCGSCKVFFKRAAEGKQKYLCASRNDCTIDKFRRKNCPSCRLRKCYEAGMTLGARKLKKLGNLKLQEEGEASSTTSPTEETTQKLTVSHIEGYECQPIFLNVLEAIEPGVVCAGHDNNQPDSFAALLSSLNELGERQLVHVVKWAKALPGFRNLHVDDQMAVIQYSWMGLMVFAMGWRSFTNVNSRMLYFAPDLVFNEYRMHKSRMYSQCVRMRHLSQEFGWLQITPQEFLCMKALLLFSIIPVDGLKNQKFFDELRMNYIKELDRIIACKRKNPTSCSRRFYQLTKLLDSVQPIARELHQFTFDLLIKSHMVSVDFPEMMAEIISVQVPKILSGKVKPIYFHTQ

[1] = tested on: human androgen receptor (hAR); design: method as in Araki et al. 2005; conditions: at high concentrations; ref Araki et al. 2005; cited from earlier work
ER [2] = tested on: ER; design: method as in Pillon et al. (2005); conditions: natural ligand; ref Pillon et al. (2005); cited from earlier work
ER [3] = tested on: ER; design: method as in Blair et al. (2000); conditions: natural ligand; ref Blair et al. (2000); cited from earlier work
AR [4] = conditions: DHT set to 100%, cited from earlier work
ER [5] = conditions: 17β-estradiol set to 100%, cited from earlier work
ER [6] = conditions: 17β-estradiol set to 100%, cited from earlier work; remark: listed apart in the source
AR [7] = conditions: read-out: EC50 AR; natural ligand; ref Xu et al. (2005); cited from earlier work
HepG2 cells = conditions: 21 hr after addition, ref Simon and Mueller 2006; cited from earlier work
AR [8] = conditions: read-out: IC50 AR; natural ligand; ref Cabeza et al. (2004); cited from earlier work
AhR [9] = conditions: TCDD set to 100%, cited from earlier work
[10] = tested on: L5178Y tk^+/tk^− mouse lymphoma-cell; design: method as in McGregor et al. 1991; conditions: ref McGregor et al. 1991; cited from earlier work
AhR [11] = tested on: AhR; design: method as in Westerink et al. (2008); conditions: ref Westerink et al. (2008); cited from earlier work
AR [12] = tested on: AR; design: method as in Viswanath et al. (2008); conditions: DHT set to 100%; ref Viswanath et al. (2008); cited from earlier work
AhR [13] = experiment: Relative binding affinity for AhR (Table 4); design: species or system human; conditions: TCDD as reference ligand set to 100%
Description: Table 4 RBA of ligands for human receptors. | column: AhR / RBA

AhR [14] = experiment: Relative activation factor for AhR (Table 4); assay type: cell-based, human; conditions: TCDD as reference ligand set to 100%
Description: Table 4 RBA of ligands for human receptors. | column: AhR / RAF

AhR [15] = tested on: AhR; design: method as in Bonefeld-Jørgensen et al. (2007); conditions: ref Bonefeld-Jørgensen et al. (2007); cited from earlier work
PR [16] = tested on: PR; design: method as in Lenasi and Breskvar (2004); conditions: natural ligand; ref Lenasi and Breskvar (2004); cited from earlier work
PR [17] = tested on: PR; design: method as in Viswanath et al. (2008); conditions: natural ligand; ref Viswanath et al. (2008); cited from earlier work
[18] = ref Bonefeld-Jørgensen et al. (2007)

BrC[C@@H](Br)[C@H]1CC[C@@H](Br)[C@H](Br)C1 (mixture of isomers) [TBECH-β, rac-(1R,2R)-1,2-dibromo-(4S)-4-[(1S)1,2-dibromoethyl]cyclohexane]
pIC50 (AR-LBD): 6.18
pEC50 (hAR): 6.53

CC(C)(C)c1ccc2c(c1)C(=O)c1ccccc1C2=O [2-tert-butylanthraquinone]
agonism to hAR [1]: weak agonists

ClC1=C(Cl)C2(Cl)C3C4C=CC(C4)C3C1(Cl)C2(Cl)Cl (centres unmarked) [Aldrin]
AR RBA (AR [4]; ref Fang et al. (2003)): 0.007 ^f %
ER RBA (ER [5]; ref Sonneveld et al. (2005)): 0.0029 ^h %

CC(C)(c1ccc(O)cc1)c1ccc(O)cc1 [Bisphenol A]
AR RBA (AR [4]; ref Scippo et al. (2004)): 0.0018 ^c %
ER RBA (ER [5]; ref Blair et al. (2000)): 0.0077 ^a %
ER RAF (ER [6]; [18]): 0.0183 ^d %

C[C@]12CCC(=O)C[C@@H]1CC[C@@H]1[C@@H]2CC[C@]2(C)[C@@H](O)CC[C@@H]12 [DHT, dihydrotestosterone]
reduction of hormone by metabolism (HepG2 cells): 46%

ClC1=C(Cl)[C@]2(Cl)[C@@H]3[C@@H]4C[C@@H]([C@H]5O[C@@H]45)[C@@H]3[C@@]1(Cl)C2(Cl)Cl [Dieldrin]
ER RBA (ER [5]; ref Sonneveld et al. (2005)): 0.0019 ^h %
ER RAF (ER [6]; ref Pillon et al. (2005)): 0.00001 ^b %

Clc1ccc(-c2ccc(Cl)c(Cl)c2)cc1Cl [PCB 77, 3,3′,4,4′-tetrachlorobiphenyl]
ER RBA (ER [5]; ref Blair et al. (2000)): < 0.0003 ^a %
AhR RAF (AhR [9]; ref Zeiger et al. (2001)): 0.025 ^i %

BrCC(Br)C1CCC(Br)C(Br)C1 (centres unmarked) [TBECH, 1,2-dibromo-4-(1,2 dibromoethyl)cyclohexane]
mutagenicity [10]: mutagenic

Clc1cc2c(cc1Cl)Oc1cc(Cl)c(Cl)cc1O2 [TCDD, 2,3,7,8-tetrachlorodibenzo-p-dioxin, reference compound]
pEC50 (AhR [11]): 10.31
AR RAF (AR [12]): < 0.0013 ^g %
AR RBA (AR [4]; ref Viswanath et al. (2008)): 0.0013 ^g %
AhR RBA (AhR [13]): 100%
AhR RAF (AhR [14]): 100%
ER RBA (ER [5]; ref Viswanath et al. (2008)): < 0.0002 ^g %
ER RAF (ER [6]; ref Viswanath et al. (2008)): 0.00012 ^g %
pIC50 (AhR [15]): 10.19

C[C@]12CC[C@H]3[C@@H](CCC4=CC(=O)CC[C@@]43C)[C@@H]1CC[C@@H]2O [Testosterone, testosterone]
reduction of hormone by metabolism (HepG2 cells): 82%

C=CC1(C)OC(=O)N(c2cc(Cl)cc(Cl)c2)C1=O (centres unmarked) [Vinclozolin]
AR RAF (AR [12]): 0.0126 ^g %
AR RBA (AR [4]; ref Fang et al. (2003)): 0.0023 ^f %
ER RBA (ER [5]; ref Blair et al. (2000)): < 0.0009 ^a %

O=C1c2ccccc2-c2cccc3cccc1c23 [benzoanthrone]
agonism to hAR [1]: weak agonists

Clc1ccc(C(c2ccccc2Cl)C(Cl)(Cl)Cl)cc1 (centres unmarked) [o,p′-DDT]
AR RAF (AR [12]): 0.0126 ^g %
AR RBA (AR [4]; ref Fang et al. (2003)): 0.0149 ^f %
ER RBA (ER [5]; ref Blair et al. (2000)): 0.0014 ^a %
ER RAF (ER [6]; ref Legler et al. (1999)): 0.0009 ^e %

Nonylphenol
AR RBA (AR [4]; ref Scippo et al. (2004)): 0.0523 ^c %
ER RBA (ER [5]; ref Blair et al. (2000)): 0.037 ^a %
ER RAF (ER [6]; ref Pillon et al. (2005)): 0.00016 ^b %
AhR RAF (AhR [9]; [18]): 0.0003 ^d %
